Assays:
[1] = system: Pythium ultimum; test: Pythium ultimum / liquid culture (seedling damping off); format: cell-based; details: Globisporangium ultimum, read-out: control of Pythium ultimum
[2] = system: Plasmopara viticola; test: Plasmopara viticola / grape / leaf disc preventative; format: in vivo; details: 200 ppm, grape vine leaf disks, inoculated 1 day after application, 6-8 days after application, compared to untreated control
[3] = system: Phytophthora infestans; format: in vivo; details: 200 ppm; tomato leaf disks, preventative, inoculated 1 day after application; 5-7 days after application; compared to untreated control

Row | SMILES | inhibition of growth at 20 ppm [1] [%] | control of Plasmopara viticola [2] | control of Phytophthora infestans [3]
1 | COC(=O)Nc1ccc(-c2cnc3ccc(C(=O)N(C)c4ccc(F)c(OC)c4)cn23)cn1 [X.01, methyl N-[5-[6-[(4-fluoro-3-methoxy-phenyl)-methyl-carbamoyl]imidazo[1,2-a]pyridin-3-yl]-2-pyridyl]carbamate] | ≥ 80 | at least 80% | –
2 | COC(=O)Nc1ccc(-c2cnc3c(C)cc(C(=O)N(C)c4ccc(F)c(OC)c4)cn23)cn1 [X.02, methyl N-[5-[6-[(4-fluoro-3-methoxy-phenyl)-methyl-carbamoyl]-8-methyl-imidazo[1,2-a]pyridin-3-yl]-2-pyridyl]carbamate] | ≥ 80 | at least 80% | –
3 | COCN(C(=O)c1cc(C)c2ncc(-c3ccc(NC(=O)OC)nc3)n2c1)c1ccc(F)c(OC)c1 [X.03, methyl N-[5-[6-[(4-fluoro-3-methoxy-phenyl)-(methoxymethyl)carbamoyl]-8-methyl-imidazo[1,2-a]pyridin-3-yl]-2-pyridyl]carbamate] | ≥ 80 | at least 80% | –
4 | COCN(C(=O)c1ccc2ncc(-c3ccc(NC(=O)OC)nc3)n2c1)c1ccc(F)c(OC)c1 [X.04, methyl N-[5-[6-[(4-fluoro-3-methoxy-phenyl)-(methoxymethyl)carbamoyl]imidazo[1,2-a]pyridin-3-yl]-2-pyridyl]carbamate] | ≥ 80 | at least 80% | –
5 | COC(=O)Nc1ccc(-c2cnc3ccc(C(=O)N(C)c4ccc(F)c(OC)c4)cn23)cc1 [X.05, methyl N-[4-[6-[(4-fluoro-3-methoxy-phenyl)-methyl-carbamoyl]imidazo[1,2-a]pyridin-3-yl]phenyl]carbamate] | ≥ 80 | at least 80% | –
6 | COc1cc(N(C)C(=O)c2ccc3ncc(-c4ccc(NC(=O)C5CC5)nc4)n3c2)ccc1F [X.06, 3-[6-(cyclopropanecarbonylamino)-3-pyridyl]-N-(4-fluoro-3-methoxy-phenyl)-N-methyl-imidazo[1,2-a]pyridine-6-carboxamide] | ≥ 80 | at least 80% | at least 80%
7 | COC(=O)Nc1ccc(-c2cnc3ccc(C(=O)N(C)c4ccc(F)cc4)cn23)cc1 [X.07, methyl N-[4-[6-[(4-fluorophenyl)-methyl-carbamoyl]imidazo[1,2-a]pyridin-3-yl]phenyl]carbamate] | ≥ 80 | at least 80% | –
8 | COC(=O)Nc1ccc(-c2cnc3c(C)cc(C(=O)N(C)c4ccc(Cl)cc4)cn23)cc1 [X.08, methyl N-[4-[6-[(4-chlorophenyl)-methyl-carbamoyl]-8-methyl-imidazo[1,2-a]pyridin-3-yl]phenyl]carbamate] | ≥ 80 | at least 80% | –
9 | COC(=O)Nc1ccc(-c2cnc3ccc(C(=O)N(C)c4ccc(F)c(C)c4)cn23)cn1 [X.09, methyl N-[5-[6-[(4-fluoro-3-methyl-phenyl)-methyl-carbamoyl]imidazo[1,2-a]pyridin-3-yl]-2-pyridyl]carbamate] | ≥ 80 | at least 80% | –
10 | COC(=O)Nc1ccc(-c2cnc3ccc(C(=O)N(C)c4ccc(C#N)c(OC)c4)cn23)cn1 [X.10, methyl N-[5-[6-[(4-cyano-3-methoxy-phenyl)-methyl-carbamoyl]imidazo[1,2-a]pyridin-3-yl]-2-pyridyl]carbamate] | ≥ 80 | at least 80% | –
11 | COC(=O)Nc1ccc(-c2cnc3ccc(C(=O)N(C)c4ccc(Cl)c(OC)c4)cn23)cn1 [X.11, methyl N-[5-[6-[(4-chloro-3-methoxy-phenyl)-methyl-carbamoyl]imidazo[1,2-a]pyridin-3-yl]-2-pyridyl]carbamate] | ≥ 80 | at least 80% | –
12 | COC(=O)Nc1ccc(-c2cnc3c(C)cc(C(=O)N(C)c4ccc(F)cc4)cn23)cn1 [X.12, methyl N-[5-[6-[(4-fluorophenyl)-methyl-carbamoyl]-8-methyl-imidazo[1,2-a]pyridin-3-yl]-2-pyridyl]carbamate] | ≥ 80 | at least 80% | –
13 | COC(=O)Nc1ccc(-c2cnc3cc(C)c(C(=O)N(C)c4ccc(F)cc4)cn23)cn1 [X.13, methyl N-[5-[6-[(4-fluorophenyl)-methyl-carbamoyl]-7-methyl-imidazo[1,2-a]pyridin-3-yl]-2-pyridyl]carbamate] | ≥ 80 | at least 80% | –
14 | COC(=O)Nc1ccc(-c2cnc3ccc(C(=O)N(CC#N)c4ccc(F)c(OC)c4)cn23)cn1 [X.14, methyl N-[5-[6-[cyanomethyl-(4-fluoro-3-methoxy-phenyl)carbamoyl]imidazo[1,2-a]pyridin-3-yl]-2-pyridyl]carbamate] | ≥ 80 | at least 80% | –
15 | COC(=O)Nc1ccc(-c2cnc3ccc(C(=O)N(CC#N)c4ccc(Cl)c(OC)c4)cn23)cn1 [X.15, methyl N-[5-[6-[(4-chloro-3-methoxy-phenyl)-(cyanomethyl)carbamoyl]imidazo[1,2-a]pyridin-3-yl]-2-pyridyl]carbamate] | ≥ 80 | at least 80% | –
16 | COC(=O)Nc1ccc(-c2cnc3ccc(C(=O)N(CS(C)(=O)=O)c4ccc(F)c(OC)c4)cn23)cn1 [X.16, methyl N-[5-[6-[(4-fluoro-3-methoxy-phenyl)-(methylsulfonylmethyl)carbamoyl]imidazo[1,2-a]pyridin-3-yl]-2-pyridyl]carbamate] | ≥ 80 | – | –
17 | CONC(=O)Nc1ccc(-c2cnc3ccc(C(=O)N(C)c4ccc(F)c(OC)c4)cn23)cn1 [X.17] | ≥ 80 | – | –
18 | COC(=O)Nc1ccc(-c2cnc3c(NC(C)=O)cc(C(=O)N(C)c4ccc(F)cc4)cn23)cn1 [X.18, methyl N-[5-[8-acetamido-6-[(4-fluorophenyl)-methyl-carbamoyl]imidazo[1,2-a]pyridin-3-yl]-2-pyridyl]carbamate] | ≥ 80 | at least 80% | –
19 | CCN(C(=O)c1ccc2ncc(-c3ccc(NC(=O)OC)nc3)n2c1)c1ccc(F)cc1 [X.19, methyl N-[5-[6-[ethyl-(4-fluorophenyl)carbamoyl]imidazo[1,2-a]pyridin-3-yl]-2-pyridyl]carbamate] | ≥ 80 | at least 80% | –
20 | COC(=O)Nc1ccc(-c2cnc3c(NC(C)=O)cc(C(=O)N(C)c4ccc(F)c(OC)c4)cn23)cn1 [X.20, methyl N-[5-[8-acetamido-6-[(4-fluoro-3-methoxy-phenyl)-methyl-carbamoyl]imidazo[1,2-a]pyridin-3-yl]-2-pyridyl]carbamate] | ≥ 80 | at least 80% | –
21 | COCc1cc(C(=O)N(C)c2ccc(F)c(OC)c2)cn2c(-c3ccc(NC(=O)OC)nc3)cnc12 [X.21, methyl N-[5-[6-[(4-fluoro-3-methoxy-phenyl)-methyl-carbamoyl]-8-(methoxymethyl)imidazo[1,2-a]pyridin-3-yl]-2-pyridyl]carbamate] | ≥ 80 | at least 80% | at least 80%
22 | COC(=O)Nc1ccc(-c2cnc3c(C)cc(C(=O)N(C)c4ccnc(OC)c4)cn23)cn1 [X.22, methyl N-[5-[6-[(2-methoxy-4-pyridyl)-methyl-carbamoyl]-8-methyl-imidazo[1,2-a]pyridin-3-yl]-2-pyridyl]carbamate] | ≥ 80 | at least 80% | at least 80%
23 | COC(=O)Nc1ccc(-c2cnc3c(C)cc(C(=O)N(C)c4ccc(C#N)c(OC)c4)cn23)cn1 [X.23, methyl N-[5-[6-[(4-cyano-3-methoxy-phenyl)-methyl-carbamoyl]-8-methyl-imidazo[1,2-a]pyridin-3-yl]-2-pyridyl]carbamate] | ≥ 80 | at least 80% | at least 80%

Reference: US20260293898A1 (priority 2023, published 2026)
